Source: patent publication US20060292221A1, “TIMED-RELEASE COMPRESSION-COATED SOLID COMPOSITION FOR ORAL ADMINISTRATION” (Astellas Pharma, Inc., priority 2000, published 2006)

Legend:
[1] = Determination of percentage erosion of core tablet; format: physicochemical; conditions: 3 hours in water at 37° C.; for Percentage erosion (%) of compression-coated tablet containing Compound 1: core: 9 parts Compound 1 solid dispersion + 6 parts of the filler; for Percentage erosion (%) of compression-coated tablets containing acetaminophen: core: 5 parts acetaminophen + 10 parts of the filler
Protocol: A compression-coated tablet containing drug is made in accordance with the method of producing a timed-release compression-coated solid composition disclosed in the present invention, the tablet is moistened for 3 hours in water at 37° C., then the gelled part of the tablet is peeled off and the portion of the core tablet that has not eroded is removed. The core tablet is allowed to dry overnight in a dryer at 40° C. and weight is determined. The value obtained by subtracting dry weight from initial core tablet weight and dividing this by initial core weight is multiplied by 100 to calculate the percentage erosion.
The percentage erosion of the core tablet of both of the above-mentioned pharmaceutical preparations was determined in accordance with the previously described method of determining the percentage erosion of the core tablet.
Then 6 parts by weight of each filler were added to 9 parts by weight of the solid dispersion and mixed with a mortar and pestle. A core tablet of 150 mg per tablet with a diameter of 6.5 mm was obtained under compression force of 500 kg/punch using an oil press. Moreover, 10 parts by weight of each filler were separately added to 5 parts by weight acetaminophen (Yoshitomi Seiyaku) and mixed with a mortar and pestle and core tablets of 150 mg per tablet with a diameter of 6.5 mm were obtained under compression force of 500 kg/punch using an oil press. Furthermore, 75 mg polyethylene oxide (Polyox® WSR303) and 175 mg Macrogol 6000 were mixed with a mortar and pestle as the outer layer. […] This tablet was immersed for 3 hours in water at 37° C. and then the gelated part of the tablet was peeled off and the uneroded core was removed. The core was dried in a dryer overnight at 40° C. and then weighed. The percentage erosion of the core tablet was calculated from the dry weight and initial weight.

[2] = Solubility of each filler (amount of water needed to dissolve 1 g filler)
CYP3A4 [3] = test: Test Example 5: midazolam plasma concentration in dogs with concomitant Compound 1; conditions: Experiment 1, midazolam singular administration, oral 4 mg/dog, n=6
CYP3A4 [4] = test: Test Example 7: midazolam plasma concentration in dogs with concomitant ketoconazol; conditions: aqueous solution containing ketoconazol with midazolam

SMILES	Percentage erosion (%) of compression-coated tablet containing Compound 1 [1] [%]	Percentage erosion (%) of compression-coated tablets containing acetaminophen [1] [%]	also measured
O=C(O)C(O)C(O)C(=O)O (centres unmarked) [Tartaric acid]	65.7		
OC[C@H]1O[C@@H](O[C@H]2[C@H](O)[C@@H](O)C(O)O[C@@H]2CO)[C@H](O)[C@@H](O)[C@H]1O (some centres unmarked) [Lactose]	24.0	7.6	
O=C(O)CC(O)C(=O)O (centres unmarked) [Malic acid]	75.0	79.3	Solubility of filler ([2]; Table 3): 2 mL; Solubility of filler ([2]; Table 4): 2 mL
O=C(O)/C=C/C(=O)O [Fumaric acid]	2.0		Solubility of filler ([2]; Table 3): > 10 mL
Cc1ncc2n1-c1ccc(Cl)cc1C(c1ccccc1F)=NC2 [Midazolam, midazolam]			Mean AUC of midazolam plasma concentration (CYP3A4 [3]): 9.0 ± 6.0 ngh/ml
O=C(O)CCC(=O)O [Succinic acid]	19.2	12.8	
CC(=O)N1CCN(c2ccc(OCC3COC(Cn4ccnc4)(c4ccc(Cl)cc4Cl)O3)cc2)CC1 (centres unmarked) [ketoconazol]			increase of average midazolam AUC compared to midazolam singular administration (CYP3A4 [4]): ≤ 4 times
O=C(O)CC(O)(CC(=O)O)C(=O)O [Citric acid]	60.3		
OC[C@H]1O[C@@](CO)(O[C@H]2O[C@H](CO)[C@@H](O)[C@H](O)[C@H]2O)[C@@H](O)[C@@H]1O [Sucrose]	48.4	56.1	Solubility of filler ([2]; Table 3): 1 mL; Solubility of filler ([2]; Table 4): 1 mL
O=C1O[C@H]([C@@H](O)CO)C(O)=C1O [Ascorbic acid]	32.4		
N[C@@H](CC(=O)O)C(=O)O [Aspartic acid]	1.4		
